Measurements as given in patent publication US11229618B2 (Amarin Pharmaceuticals Ireland Limited, priority 2012, dated 2022).

Test: ANCHOR: RBC fatty acid concentrations, ratios and class proportions (GC/FID)
Assay type: in vivo, human
Parameters: DHA RBC End-of-treatment / DHA RBC Change from baseline / DPAn-3 RBC End-of-treatment / DPAn-3 RBC Change from baseline / AA RBC End-of-treatment / AA RBC Change from baseline / Stearic RBC End-of-treatment / Stearic RBC Change from baseline / Oleic RBC End-of-treatment / Oleic RBC Change from baseline / Linoleic RBC End-of-treatment / Linoleic RBC Change from baseline: unit not given here
Conditions: for AA RBC Placebo-adjusted percent change from baseline / DHA RBC Placebo-adjusted percent change from baseline / DPAn-3 RBC Placebo-adjusted percent change from baseline / Linoleic RBC Placebo-adjusted percent change from baseline / Oleic RBC Placebo-adjusted percent change from baseline / Palmitic RBC Placebo-adjusted percent change from baseline / Ratio of AA/EPA RBC Placebo-adjusted percent change from baseline / Ratio of total ω-3/total ω-6 RBC Placebo-adjusted percent change from baseline / Stearic RBC Placebo-adjusted percent change from baseline: week 12, LS mean; for Monounsaturated, proportion of total fatty acids, RBCs, Change from baseline / Saturated, proportion of total fatty acids, RBCs, Change from baseline / Total ω-3, proportion of total fatty acids, RBCs, Change from baseline / Total ω-6, proportion of total fatty acids, RBCs, Change from baseline: LS mean (SE); for AA RBC End-of-treatment / DHA RBC End-of-treatment / DPAn-3 RBC End-of-treatment / Linoleic RBC End-of-treatment / Oleic RBC End-of-treatment / Palmitic RBC End-of-treatment / Ratio of AA/EPA RBC End-of-treatment / Ratio of total ω-3/total ω-6 RBC End-of-treatment / Stearic RBC End-of-treatment: week 12, mean; for Monounsaturated, proportion of total fatty acids, RBCs, End-of-treatment / Saturated, proportion of total fatty acids, RBCs, End-of-treatment / Total ω-3, proportion of total fatty acids, RBCs, End-of-treatment / Total ω-6, proportion of total fatty acids, RBCs, End-of-treatment: week 12, mean (SD)
Protocol: A multi-center, placebo-controlled, randomized, double-blind, 12-week study was performed to evaluate the efficacy and safety of >96% E-EPA in patients with fasting triglyceride levels≥200 mg/dl and <500 mg/dl despite statin therapy (the mean of two qualifying entry values needed to be ≥185 mg/dl and at least one of the values needed to be ≥200 mg/dl). The primary objective of the study was to determine the efficacy of >96% E-EPA 2 g daily and 4 g daily, compared to placebo, in lowering fasting TG levels in patients with high risk for cardiovascular disease and with fasting TG levels≥200 mg/dL and <500 mg/dL, despite treatment to LDL-C goal on statin therapy.
During the double-blind treatment period, patients were to take 2 capsules (>96% E-EPA or matching placebo) in the morning and 2 capsules in the evening for a total of 4 capsules per day. • Patients in the >96% E-EPA 2 g/day treatment group received 1>96% E-EPA 1 g capsule and 1 matching placebo capsule in the morning and in the evening. • Patients in the >96% E-EPA 4 g/day treatment group received 2>96% E-EPA 1 g capsules in the morning and evening. • Patients in the placebo group received 2 matching placebo capsules in the morning and evening.
Lipids were extracted from plasma and red blood cell (“RBC”) suspensions and converted into fatty acid methyl esters for analysis using a standard validated gas chromatography/flame ionization detection method. Fatty acid parameters were compared between EPA treatment groups and placebo using an ANCOVA model with treatment, gender, type of statin therapy, and presence of diabetes as factors, and the baseline parameter value as a covariate. LSMs, SEs, and 2-tailed 95% confidence intervals for each treatment group and for each comparison were determined.
The monounsaturated fatty acid group included myristoleic, palmitoleic, cis-vaccenic, oleic, gondoic/gadoleic, erucic and nervonic acids. The saturated fatty acid group included myristic, palmitic, stearic, arachidic, behenic and lignoceric acids. The “total ω-3” group included α-linolenic, stearidonic, eicosatrienoic, ω-3 arachidonic, eicosapentaenoic, ω-3 docosapentaenoic and docosahecaenoic acids. The “total ω-6” group included linoleic, γ-linolenic, eicosadienoic, dihomo-γ-linolenic, ω-6 arachidonic, adrenic, and ω-6 docosapentaenoic acids. The “total fatty acid” group represented the sum of the monounsaturated, saturated, total ω-3 and total ω-6 groups.

[1] = 2 g/day, baseline to week 12, LS mean (SE)
[2] = 4 g/day, baseline to week 12, LS mean

Compound: CC/C=C\C/C=C\C/C=C\C/C=C\C/C=C\CCCC(=O)OCC [IPE, all-cis eicosa-5,8,11,14,17-pentaenoic acid ethyl ester]
- Monounsaturated, proportion of total fatty acids, RBCs, Placebo-adjusted percent change from baseline (2 g/day vs placebo): −0.7%
- Saturated, proportion of total fatty acids, RBCs, Placebo-adjusted percent change from baseline (2 g/day vs placebo): 1.3%
- Total ω-3, proportion of total fatty acids, RBCs, Placebo-adjusted percent change from baseline (2 g/day vs placebo): 50.0%
- Total ω-6, proportion of total fatty acids, RBCs, Placebo-adjusted percent change from baseline (2 g/day vs placebo): −11.3%
- AA RBC Placebo-adjusted percent change from baseline (2 g/day vs placebo): −11.6%
- DHA RBC Placebo-adjusted percent change from baseline (2 g/day vs placebo): −5.4%
- DPAn-3 RBC Placebo-adjusted percent change from baseline (2 g/day vs placebo): 74.9%
- Linoleic RBC Placebo-adjusted percent change from baseline (2 g/day vs placebo): −2.1%
- Oleic RBC Placebo-adjusted percent change from baseline (2 g/day vs placebo): 1.6%
- Palmitic RBC Placebo-adjusted percent change from baseline (2 g/day vs placebo): 0.5%
- Ratio of AA/EPA RBC Placebo-adjusted percent change from baseline (2 g/day vs placebo): −87.1%
- Ratio of total ω-3/total ω-6 RBC Placebo-adjusted percent change from baseline (2 g/day vs placebo): 60.4%
- Stearic RBC Placebo-adjusted percent change from baseline (2 g/day vs placebo): 1.6%
- Monounsaturated, proportion of total fatty acids, RBCs, Change from baseline (2 g/day): −0.1 (0.2) mol %
- Saturated, proportion of total fatty acids, RBCs, Change from baseline (2 g/day): −0.3 (0.3) mol %
- Total ω-3, proportion of total fatty acids, RBCs, Change from baseline (2 g/day): 2.6 (0.2) mol %
- Total ω-6, proportion of total fatty acids, RBCs, Change from baseline (2 g/day): −2.4 (0.4) mol %
- AA RBC Change from baseline [1]: −20.0 (3.3)
- DHA RBC Change from baseline [1]: −5.5 (0.9)
- DPAn-3 RBC Change from baseline [1]: 21.2 (1.3)
- Linoleic RBC Change from baseline [1]: −1.3 (3.5)
- Oleic RBC Change from baseline [1]: 3.1 (2.8)
- Palmitic RBC Change from baseline [1]: 4.9 (4.1)
- Ratio of AA/EPA RBC Change from baseline [1]: −21.9 (0.8)
- Ratio of total ω-3/total ω-6 RBC Change from baseline [1]: 0.1 (0.01)
- Stearic RBC Change from baseline [1]: 3.9 (2.3)
- AA RBC End-of-treatment (2 g/day): 173.0
- DHA RBC End-of-treatment (2 g/day): 44.7
- DPAn-3 RBC End-of-treatment (2 g/day): 52.2
- Linoleic RBC End-of-treatment (2 g/day): 153.1
- Oleic RBC End-of-treatment (2 g/day): 204.7
- Palmitic RBC End-of-treatment (2 g/day): 321.1
- Ratio of AA/EPA RBC End-of-treatment (2 g/day): 6.4
- Ratio of total ω-3/total ω-6 RBC End-of-treatment (2 g/day): 0.3
- Stearic RBC End-of-treatment (2 g/day): 178.7
- Monounsaturated, proportion of total fatty acids, RBCs, End-of-treatment (2 g/day): 19.9 (1.1) mol %
- Saturated, proportion of total fatty acids, RBCs, End-of-treatment (2 g/day): 43.5 (2.1) mol %
- Total ω-3, proportion of total fatty acids, RBCs, End-of-treatment (2 g/day): 8.5 (1.5) mol %
- Total ω-6, proportion of total fatty acids, RBCs, End-of-treatment (2 g/day): 28.1 (2.1) mol %
- Monounsaturated, proportion of total fatty acids, RBCs, Placebo-adjusted percent change from baseline (4 g/day vs placebo): −2.7%
- Saturated, proportion of total fatty acids, RBCs, Placebo-adjusted percent change from baseline (4 g/day vs placebo): 3.2%
- Total ω-3, proportion of total fatty acids, RBCs, Placebo-adjusted percent change from baseline (4 g/day vs placebo): 89.1%
- Total ω-6, proportion of total fatty acids, RBCs, Placebo-adjusted percent change from baseline (4 g/day vs placebo): −19.7%
- AA RBC Placebo-adjusted percent change from baseline (4 g/day vs placebo): −20.3%
- DHA RBC Placebo-adjusted percent change from baseline (4 g/day vs placebo): −6.6%
- DPAn-3 RBC Placebo-adjusted percent change from baseline (4 g/day vs placebo): 122.4%
- Linoleic RBC Placebo-adjusted percent change from baseline (4 g/day vs placebo): −11.1%
- Oleic RBC Placebo-adjusted percent change from baseline (4 g/day vs placebo): −3.7%
- Palmitic RBC Placebo-adjusted percent change from baseline (4 g/day vs placebo): −2.7%
- Ratio of AA/EPA RBC Placebo-adjusted percent change from baseline (4 g/day vs placebo): −98.5%
- Ratio of total ω-3/total ω-6 RBC Placebo-adjusted percent change from baseline (4 g/day vs placebo): 123.0%
- Stearic RBC Placebo-adjusted percent change from baseline (4 g/day vs placebo): −1.3%
- Monounsaturated, proportion of total fatty acids, RBCs, Change from baseline (4 g/day): −0.5 (0.2) mol %
- Saturated, proportion of total fatty acids, RBCs, Change from baseline (4 g/day): 0.5 (0.3) mol %
- Total ω-3, proportion of total fatty acids, RBCs, Change from baseline (4 g/day): 4.9 (0.2) mol %
- Total ω-6, proportion of total fatty acids, RBCs, Change from baseline (4 g/day): −4.9 (0.4) mol %
- AA RBC Change from baseline [2]: −37.5
- DHA RBC Change from baseline [2]: −6.4
- DPAn-3 RBC Change from baseline [2]: 33.6
- Linoleic RBC Change from baseline [2]: −16.1
- Oleic RBC Change from baseline [2]: −8.0
- Palmitic RBC Change from baseline [2]: −6.3
- Ratio of total ω-3/total ω-6 RBC Change from baseline [2]: 0.2
- Stearic RBC Change from baseline [2]: −1.4
- AA RBC End-of-treatment (4 g/day): 153.1
- DHA RBC End-of-treatment (4 g/day): 39.0
- DPAn-3 RBC End-of-treatment (4 g/day): 61.9
- Linoleic RBC End-of-treatment (4 g/day): 132.7
- Oleic RBC End-of-treatment (4 g/day): 188.8
- Palmitic RBC End-of-treatment (4 g/day): 301.2
- Ratio of AA/EPA RBC End-of-treatment (4 g/day): 3.6
- Ratio of total ω-3/total ω-6 RBC End-of-treatment (4 g/day): 0.4
- Stearic RBC End-of-treatment (4 g/day): 170.5
- Monounsaturated, proportion of total fatty acids, RBCs, End-of-treatment (4 g/day): 19.8 (1.7) mol %
- Saturated, proportion of total fatty acids, RBCs, End-of-treatment (4 g/day): 44.2 (3.0) mol %
- Total ω-3, proportion of total fatty acids, RBCs, End-of-treatment (4 g/day): 10.2 (2.5) mol %
- Total ω-6, proportion of total fatty acids, RBCs, End-of-treatment (4 g/day): 25.8 (3.2) mol %
